# Assay results reported in paper PMC7892554 (Scientific Reports, 2021).
# “Also recorded” adds a separate entry of the source. Like-named read-outs stand apart in the source and are kept apart here. Positions of bridges follow the written chain, without caps; N, C: chain ends. Residues, ends and D or L forms follow the SMILES beside them.
# Legend:
# M. smegmatis = assay type: cell-based, Mycobacterium smegmatis mc^2155
# M. tuberculosis H37Rv = tested on: M. tuberculosis H37Rv; set-up: species or system BALB/c mice; details: mouse, in vivo
# [1] = tested on: M. tuberculosis H37Rv infected mice; assay type: in vivo, BALB/c mice
# [2] = mouse, in vivo, iv, 33 mg/kg
# in vivo = details: male, BALB/c, mouse, iv, 33 mg/kg
# [3] = in vivo; cited from earlier work
compound,measurement,setting,value
"CC[C@H](C)[C@@H]1NC(=O)[C@H](CO)NC(=O)[C@H](CCCCN)NC(=O)[C@@H]2CSSC[C@@H](C(=O)N[C@@H](Cc3ccc(O)cc3)C(=O)O)NC(=O)[C@H](CCCCN)NC(=O)[C@@H]3CSSC[C@H](NC(=O)[C@H](CCC(N)=O)NC(=O)[C@H]([C@@H](C)CC)NC(=O)[C@H](CC(=O)O)NC(=O)[C@H](CC(=O)O)NC(=O)[C@H](CCC(=O)O)NC(=O)[C@H](CO)NC(=O)[C@H](Cc4c[nH]c5ccccc45)NC(=O)[C@@H]4CCCN4C(=O)CNC(=O)[C@H](CC(N)=O)NC(=O)[C@@H](NC(=O)CNC(=O)[C@H](Cc4ccccc4)NC(=O)CN)CSSC[C@H](NC(=O)[C@H](Cc4ccc(O)cc4)NC(=O)CNC(=O)CNC(=O)[C@H](CCCCN)NC(=O)[C@H](Cc4ccc(O)cc4)NC(=O)CNC(=O)[C@H](CCCCN)NC1=O)C(=O)N[C@@H](C)C(=O)N[C@@H](CCCNC(=N)N)C(=O)NCC(=O)NCC(=O)N[C@@H](Cc1ccccc1)C(=O)N[C@@H](C(C)C)C(=O)N3)C(=O)N[C@@H](Cc1c[nH]cn1)C(=O)N[C@@H](CC(N)=O)C(=O)N[C@@H](Cc1c[nH]cn1)C(=O)N2 [NZX] (H-GFGCNGPWSEDDIQCHNHCKSIKGYKGGYCARGGFVCKCY-OH; disulfide 4-30, 15-37, 19-39)",Frequency at which resistant mutants emerge,M. smegmatis,< 10^–9
same,Resistant mutants detected,M. smegmatis,did not detect any resistant mutants
same,Bacterial (CFU) reduction compared to the untreated control,M. tuberculosis H37Rv,75%
same,"Lung tissue destruction / inflammatory score (perivascular, peribronchiolar and alveolar infiltration)","[1]; mouse, in vivo",decreased tissue destruction
same,NZX in the circulation after 240 min,[2],not detected
same,Cmax,in vivo,61 µg/mL
same,half-life,in vivo,42 min
CC[C@@H](CO)NCCN[C@@H](CC)CO [ethambutol],Bacterial (CFU) reduction compared to the untreated control,M. tuberculosis H37Rv,79%
same,"Lung tissue destruction / inflammatory score (perivascular, peribronchiolar and alveolar infiltration)",[1]; n = 4–5,more severe tissue destruction
NNC(=O)c1ccncc1 [isoniazid],Bacterial (CFU) reduction compared to the untreated control,M. tuberculosis H37Rv,92%
same,"Lung tissue destruction / inflammatory score (perivascular, peribronchiolar and alveolar infiltration)",[1]; n = 4–5,decreased tissue destruction; also recorded: preserved alveolar structure best
plectasin,Terminal serum elimination half-life,[3],51 min
